Test results from article PMC5369982, “Near infrared fluorescent imaging of choline kinase alpha expression and inhibition in breast tumors” (Oncotarget, 2017).
Read-outs that look alike come from different tables or passages of the source.

Legend:
[1] = Blood toxicology after the 5-day treatment; assay type: in vivo; settings: 5 days i.p.; MN58b 2 mg/kg, JAS239 4 mg/kg
Procedure: (§1) A cohort of 15 mice was inoculated with MDA-MB-231 cells. When a volume of 300 μL was reached, tumors were scanned using MRS. Tumor volumes were measured using T2-weighted images. The animals were separated into treatment groups, and for 5 consecutive days each group was injected i.p. with 100 μL of DMSO/saline vehicle (n = 5), 2 mg/kg MN58b (n = 4), or 4 mg/kg JAS239 (n = 3). Initial cohort sizes were 5 per condition, but some animals had to be removed from the study because the treatment was so effective that we were unable to place voxels within post-treatment tumors that were too small. Follow-up MRI/MRS scanning was performed on day 7 to assess tumor growth inhibition and changes in metabolite levels. After imaging, blood was collected into heparin-coated tubes by cardiac puncture. Resected tumors were embedded in Optimum Cryo-Temperature (Sakura Finetek), flash-frozen in liquid nitrogen, and stored at –80 °C. Blood samples were submitted to the Ryan Veterinary Clinic Diagnostic labs for toxicology.
Supplementary Figure 6: Both ChoKα inhibitors show early signs of tumor growth inhibition and apoptosis, however JAS239 is better tolerated in animals. (A) Vehicle-treated tumors increased in size during the treatment regimen, whereas the tumor volumes of MN58b and JAS239 treated mice were unchanged. […]

ChoKα = ChoKα (Homo sapiens, UniProt P35790); test: ChoKα activity assay (14C-choline phosphorylation to 14C-PC in cells); assay type: cell-based; set-up: endogenous in cells; host or cells: MCF7-EV, MCF7-CK+ (stably overexpressing ChoK), MDA-MB-231, 4175-Luc+; settings: analyzed after 2 h, ± SEM, 3 experiments, read-out: IC50 (14C-PC production)
ChoKα, sequence (P35790 whole entry): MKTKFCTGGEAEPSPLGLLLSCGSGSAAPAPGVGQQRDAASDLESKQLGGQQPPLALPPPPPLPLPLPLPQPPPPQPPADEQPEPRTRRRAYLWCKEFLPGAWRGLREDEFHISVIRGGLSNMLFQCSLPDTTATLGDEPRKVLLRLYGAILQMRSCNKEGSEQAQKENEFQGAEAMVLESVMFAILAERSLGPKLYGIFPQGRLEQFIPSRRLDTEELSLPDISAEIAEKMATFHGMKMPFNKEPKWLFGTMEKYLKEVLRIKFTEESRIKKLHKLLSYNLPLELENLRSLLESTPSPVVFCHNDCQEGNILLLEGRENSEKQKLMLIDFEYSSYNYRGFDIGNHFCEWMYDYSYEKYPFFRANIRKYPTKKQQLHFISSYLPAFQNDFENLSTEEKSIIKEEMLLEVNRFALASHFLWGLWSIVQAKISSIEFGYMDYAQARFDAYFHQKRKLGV
Procedure: Cells in 6-well plates (1.0 × 10^6 cells/well) were incubated for 24 h then treated with JAS239 or MN58b. After 1 h, cells were spiked for 1 h with 0.5 μCi/mL [methyl-^14C]-choline (PerkinElmer) and fixed with trichloroacetic acid. Aqueous cellular extracts were separated by thin layer chromatography (TLC) and the ^14C-PC production measured by autoradiography on a Fujifilm FLA-7000 using previously described methods. […]
Supplementary Figure 1: Characterization of ChoKα in a panel of human breast cancer cell lines. (A) Determination of
ChoKα expression by Western blot confirms elevated ChoKα protein found in MCF7-CK+ cells. (B) Conversion of 14C-choline to 14C-PC
follows the pattern expected from ChoKα expression levels in (A). (C–F) Dose-response curves comparing the effect of MN58b ( C, D) or
JAS239 (E, F) on 14C-choline phosphorylation in MCF7-EV and MCF7-CK+ cells (C, E) or MDA-MB-231 and 4175-Luc+ cells (D, F).
Values are reported as a percentage of the untreated EV group (for MCF7 cells) or untreated MDA-MB-231 group (for MDA-MB-231 and
4175-Luc+), and represent ± SEM for 3 separate experiments.

MDA-MB-231 cells = test: Cell viability, MTT assay; assay type: cell-based, human; settings: 17 h, ± SEM, 3 experiments
Procedure: MCF7 cells were plated for Trypan exclusion assays at 1.0 × 10^6 cells/well in 6-well plates and treated with MN58b or JAS239, synthesized in house. At 17 h, cells were collected by trypsinization, stained with Trypan Blue, and counted using a Neubauer hemocytometer. For 3-(4,5-Dimethylthiazol-2-yl)-2,5-diphenyltetrazolium bromide (MTT) assays, cells in 96-well plates (7.5 × 10^4 cells/well) were treated with JAS239 or MN58b overnight, and stained with 20 μL of 5 mg/mL MTT (Sigma-Aldrich) for 2 h, lysed with DMSO and scanned for absorbance using a SpectraMax M5 plate reader (Molecular Devices) at 550 nm, subtracting background absorbance at 690 nm from each sample.
Supplementary Figure 2: Breast cancer cell viability in response to ChoK inhibitors. (A–D) Cell viability measurements via […]
(A) or JAS239 (B). MTT assays were performed on MDA-MB-231 and 4175-Luc+ (C, D) cells exposed to MN58b (C) or JAS239 (D).
Values are reported relative to untreated control groups and represent ± SEM for 3 separate experiments. At higher JAS239 concentrations, the MTT assay was used as JAS239 interfered with Trypan blue counting. There was no overlap in absorbance readings between the MTT formazan product and JAS239.
(1 picture or pasted object on this page, not shown here)

MDA-MB-231 tumors = test: Pharmacodynamic indicators of ChoKα inhibition (MRI/MRS); assay type: in vivo, mouse; settings: 5 days i.p., MN58b 2 mg/kg, JAS239 4 mg/kg; for Change in tumor tCho compared to control (MRS) / Tumor volume between pre- and post-treatment scans (MRI): day 7; for PUFA resonances (measure of tumor apoptosis): trend not significant
Procedure: Mice bearing subcutaneous 4175-Luc+ or MB-MDA-231 tumors (∼300 μL) underwent pre-treatment MRS scans in a 9.4 T horizontal bore magnet equipped with 40 G/cm gradients interfaced to an Agilent Direct-Drive console (Agilent) operating vnmrj 2.3.C software. Multi-slice gradient and spin echo images were used for tumor localization. T2-weighted spin echo anatomical images were acquired using a spin echo multi-slice (SEMS) pulse sequence (TR = 1000 ms, TE = 10 ms, number of slices = 20, field of view = 20 × 20 mm^2, slice thickness = 1 mm, NT = 1, matrix size = 256 × 128) and used for voxel selection. A single voxel ^1H PRESS spectrum was acquired in a 3×3x3 mm^3 voxel (TR = 3000 ms, TE1 = 12.68 ms and TE2 = 10.01 ms, number of averages = 128, complex points = 4096, spectral width = 4000 Hz and acquisition time of 6 min 24 sec). Water suppression was achieved using the VAPOR sequence. An unsuppressed water spectrum was acquired (8 averages) as a chemical shift and concentration reference. One week following initiation of treatment, ^1H MR spectra were acquired again. Spectra were processed using Mnova Lite 5.2.5 software (Mestrelab Research). Free induction decays were processed by 10 Hz apodization followed by Fourier transformation. Spectra were phased and chemical shift and baseline correction performed prior to fitting of the water (4.7 ppm), tCho (3.2 ppm), PUFA (2.8 ppm), and lipid (1.3 ppm) resonances. The metabolite/water ratio was determined and the percent change was determined as [post-treatment ratio – pre-treatment ratio] *100%/pre-treatment ratio.
as §1

Which results are given for `CC1(C)C(=C/C=C/C=C/C=C/C2=[N+](CCO)c3ccccc3C2(C)C)N(CCO)c2ccccc21` [JAS239]?
Toxicology [1]: No observable or measurable toxicity; IC50 (ChoKα; 4175-Luc+ cells): 9.89 ± 0.24 µM; IC50 (ChoKα; MCF7-CK+ cells): 10.3 ± 2.48 µM; IC50 (ChoKα; MCF7-EV cells): 11.1 ± 5.64 µM; IC50 (ChoKα; MDA-MB-231 cells): 9.92 ± 0.22 µM; EC50 (MDA-MB-231 cells): 27.2 ± 7.9 µM; Change in tumor tCho compared to control (MRS) (MDA-MB-231 tumors): reduce tCho to noise levels; Tumor volume between pre- and post-treatment scans (MRI) (MDA-MB-231 tumors): static; PUFA resonances (measure of tumor apoptosis) (MDA-MB-231 tumors): increased

For MN58b [reference compound], which Toxicology [1] is on record?
Its Toxicology is “elevation of blood urea nitrogen”.

And the IC50 (ChoKα; 4175-Luc+ cells)?
The IC50 was 4.59 ± 0.55 µM.

And the IC50 (ChoKα; MCF7-CK+ cells)?
The IC50 was 2.36 ± 0.28 µM.

And the IC50 (ChoKα; MCF7-EV cells)?
The IC50 was 3.85 ± 0.42 µM.

What about the IC50 (ChoKα; MDA-MB-231 cells) of the same compound?
Its IC50 is 4.36 ± 1.37 µM.

And the EC50 (MDA-MB-231 cells)?
The EC50 was 14.3 ± 4.6 µM.

What about the “Change in tumor tCho compared to control (MRS)” value (MDA-MB-231 tumors) of the same compound?
Its value is “Significant reductions in tCho”.

What about the “Tumor volume between pre- and post-treatment scans (MRI)” value (MDA-MB-231 tumors) of the same compound?
The value was “static”.

And the “PUFA resonances (measure of tumor apoptosis)” value (MDA-MB-231 tumors)?
Its value is “increased”.
